Reference: a compilation of properties of binary mixtures (doi:10.1021/acs.jced.3c00239)

Experiment: xn = mol fraction of the nth substance listed
Settings: 100 kPa

CC[n+]1ccn(C)c1.N#C[N-]C#N + CCCCO
Settings | speed of sound [m/s] | viscosity [mPa·s]
298.15 K, x1 = 0.1015 | 1316 | 2.73
298.15 K, x1 = 0.2007 | 1385 | 2.85
298.15 K, x1 = 0.4008 | 1515 | 3.54
298.15 K, x1 = 0.5021 | 1575 | 4.21
298.15 K, x1 = 0.6014 | 1629 | 5.1
298.15 K, x1 = 0.7012 | 1685 | 6.4
298.15 K, x1 = 0.8016 | 1725 | 7.9
298.15 K, x1 = 0.9012 | 1763 | 10
298.15 K, x1 = 1 | 1787 | 13.1
303.15 K, x1 = 0.1015 | 1300 | 2.36
303.15 K, x1 = 0.2007 | 1369 | 2.41
303.15 K, x1 = 0.3006 | 1435 | 2.63
303.15 K, x1 = 0.4008 | 1499 | 2.99
303.15 K, x1 = 0.5021 | 1559 | 3.55
303.15 K, x1 = 0.6014 | 1613 | 4.26
303.15 K, x1 = 0.7012 | 1669 | 5.2
303.15 K, x1 = 0.8016 | 1709 | 6.6
303.15 K, x1 = 1 | 1775 | 11.8
308.15 K, x1 = 0.1015 | 1283 | 2.11
308.15 K, x1 = 0.2007 | 1352 | 2.17
308.15 K, x1 = 0.5021 | 1542 | 2.86
308.15 K, x1 = 0.6014 | 1596 | 3.47
308.15 K, x1 = 0.9012 | 1730 | 7.3
308.15 K, x1 = 1 | 1763 | 10.9
313.15 K, x1 = 0.1015 | 1266 | 1.91
313.15 K, x1 = 0.4008 | 1466 | 2.16
313.15 K, x1 = 0.5021 | 1525 | 2.38
313.15 K, x1 = 0.6014 | 1580 | 2.89
313.15 K, x1 = 0.7012 | 1636 | 3.58
313.15 K, x1 = 0.8016 | 1676 | 4.42
313.15 K, x1 = 0.9012 | 1713 | 6
313.15 K, x1 = 1 | 1751 | 9
318.15 K, x1 = 0.1015 | 1250 | 1.71
318.15 K, x1 = 0.2007 | 1319 | 1.79
318.15 K, x1 = 0.3006 | 1385 | 1.86
318.15 K, x1 = 0.4008 | 1449 | 1.93
318.15 K, x1 = 0.5021 | 1509 | 2.07
318.15 K, x1 = 0.7012 | 1619 | 2.91
318.15 K, x1 = 0.8016 | 1659 | 3.61
318.15 K, x1 = 0.9012 | 1697 | 5
318.15 K, x1 = 1 | 1739 | 8.1
323.15 K, x1 = 0.1015 | 1233 | 1.52
323.15 K, x1 = 0.3006 | 1369 | 1.63
323.15 K, x1 = 0.5021 | 1492 | 1.84
323.15 K, x1 = 0.6014 | 1547 | 1.99
323.15 K, x1 = 0.7012 | 1603 | 2.43
323.15 K, x1 = 0.8016 | 1643 | 3.03
323.15 K, x1 = 0.9012 | 1680 | 4.01
323.15 K, x1 = 1 | 1727 | 7.3

CCCCO + CC[n+]1ccn(C)c1.N#C[N-]C#N
x2 = 0
Settings | speed of sound [m/s] | viscosity [mPa·s]
298.15 K | 1241 | 2.69
303.15 K | 1224 | 2.41
308.15 K | 1207 | 2.17
313.15 K | 1191 | 1.91
318.15 K | 1174 | 1.71
323.15 K | 1158 | 1.57
